This note sets out measurements from patent US20210063414A1, “METHODS FOR PREVENTING AND/OR TREATING BONE LOSS CONDITIONS BY MODULATING IRISIN” (Dana-Farber Cancer Institute, Inc., priority 2018, published 2021).

“Also recorded” adds a separate entry of the source.

The test relates to MLO-Y4 cells. The test can be described thus: Integrin-like signaling (pFAK, pZyxin, pAKT, pCREB) in MLO-Y4 cells, immunoblot. Format: cell-based. To be noted: MLO-Y4, inhibitor pre-treatment 10 minutes before irisin. The method, then:
Integrin heterodimer binds to its ligand. The interaction results in phosphorylation of FAK and Zyxin, followed by phosphorylation of AKT (at T308) and CREB. PM is plasma membrane. FIG. 2C and FIG. 2D show the immunoblots. MLO-Y4 cells were seeded and incubated until 60% cell density. The cells were incubated with serum free medium (FreeStyle™ 293 medium) for 4 hours and were treated for indicated time with 10 nM norepinephrine or irisin (FIG. 2C) or indicated concentrations of irisin for 10 minutes (FIG. 2D). Cells were lysed to detect the indicated protein level using immunoblot analysis.
Certain materials and methods were used to generate the results described herein. For example, the data shown in FIG. 1A resulted from MLO-Y4 (an osteocyte-like cell line) cells treated with the indicated concentration of irisin and hydrogen peroxide for 4 hours. Cells were stained with Hoechst 33342 (ThermoFisher Scientific, catalog number H3570) and Eth-D1 (ThermoFisher Scientific, catalog number E1169) and analyzed to determine the percentage of cell death using ImageJ. The data shown in FIG. 2D resulted from MLO-Y4 incubated in serum free medium (FreeStyle™ 293 expression medium, ThermoFisher Scientific, catalog number 12338018) for 4 hours followed by treatment of indicated concentrations of irisin for 10 minutes. Cells were lysed to detect the indicated protein level using immunoblot analysis (Cell Signaling Technology, catalog numbers 3283S, 3285S, 8467S, 3553S, 9198S, and 9104S; Abcam, catalog number ab49900-100ul). The data shown in FIG. 3 resulted from 3T3-F442A cells incubated in serum free medium for 4 hours followed by treatment of indicated concentrations of irisin for 10 minutes. Cells were lysed by RIPA buffer to detect the indicated protein level using immunoblot analysis. The data shown in FIG. 4 were generated from 100 nM flag-tagged irisin (Enzo life sciences, catalog number ADI-908-307-3010) incubated with 5 nM of the indicated 6 his-tag integrins (R & D Systems Inc., catalog numbers 7064-AB-025, 5668-A4-050, 5438-A9-050, 6357-AB-050, and 6579-AV-025) in the presence of RGDS peptide (R & D Systems Inc., catalog number 3498/10) or its control peptide (Enzo Life Sciences, catalog Number BML-P701-0005) followed by immunoprecipitation using 6 his-tag beads (ThermoFisher Scientific, catalog number R901-01). Co-precipitated irisin was analyzed by immunoblot analysis against flag tag (Sigma Aldrich, catalog number A8592). The data shown in FIGS. 5A and 5B were generated from MLO-Y4 cells treated and analyzed as in the experiments used to generate the data shown in FIG. 2D, except that pre-treatment of 100 nM RGDS (FIG. 5A) or echistatin (R & D Systems Inc., catalog number 3202/100U) (FIG. 5B) for 10 minutes was performed before irisin treatment. The data shown in FIGS. 6A and 6B were generated from MLO-Y4 cells incubated in serum free medium for 3 hours followed by treatment of indicated time of 10 nM irisin for 16 hours. RNAs were extracted from the cells and the sclerostin mRNA level was analyzed by qPCR (FIG. 6A) or treated and analyzed as in (FIG. 6A), except that pre-treatment of 10 μM RGDS, RGDyK (Selleck, catalog number S7844), or echistatin was performed for 10 minutes before irisin treatment. The data shown in FIGS. 7A and 7B were generated from 8 week-old mice injected with the indicated dose of irisin for 6 days. Tibias were collected and treated with collagenase to obtain mRNA from the osteocyte-enriched bones. Sclerostin mRNA level was analyzed by qPCR (FIG. 7A). Serum was collected to analyze the sclerostin protein level using ELISA kit (R&D Systems Inc., catalog number MSST00) (FIG. 7B). The data shown in FIG. 8 were generated from 8 week-old mice injected with the indicated dose of irisin for 6 days. Epididymal fats were collected, RNAs were extracted from the tissues, and mRNA levels of the indicated genes were analyzed by qPCR. […]
In general terms: In western blotting, separated proteins are transferred to a membrane and probed.

`N=C(N)NCCC[C@@H]1NC(=O)[C@H](CCCCN)NC(=O)[C@@H](Cc2ccc(O)cc2)NC(=O)[C@H](CC(=O)O)NC(=O)CNC1=O` [cyclo RGDyK]: the “effect of integrin inhibitor on irisin-induced signaling (phosphorylation of FAK, Zyxin, CREB)” value is listed as “block irisin-induced signaling”.
On to “RGDS peptide: classical integrin competitive inhibitory peptide, commercially available form of the RGD peptide”, for which the “effect of integrin inhibitor on irisin-induced signaling (phosphorylation of FAK, Zyxin, CREB)” value is listed as “most irisin signaling in osteocytes was inhibited; also recorded: dramatically suppressed”.
